{"source": "PubChem BioAssay AID1288", "about": "(Columbia University Molecular Screening Center, 2008)", "note": "Calls of active or inactive are those of the source. No rule for the calls is given here."}
{"test": "E-selectin induction blockers, endothelial cells – imaging, retest plus dose response, cell count, confirmation (AID 1288);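 also: 0% = stimulated vehicle wells and 100% = unstimulated vehicle wells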", "conditions": "human endothelial cells, TNFa-induced E-selectin, imaging; at 2 µM; stronger effect = higher value"}
{"smiles": "O=C(Nc1ccc(-c2nc3cccnc3s2)cc1)c1ccc(Br)o1", "inhibition": "5.96% (inactive)"}
{"smiles": "Nc1ccc2c(c1)N1CCN=C1S2", "inhibition": "11.1% (inactive)"}
{"smiles": "COC(=O)c1cnc(SCc2ccc(C)cc2)n1C", "inhibition": "15.2% (inactive)"}
{"smiles": "N#CC1=C(N)Oc2cc(Nc3ccccc3)ccc2C1c1ccncc1", "note": "(centres undefined)", "inhibition": "4.14% (inactive)"}
{"smiles": "Cc1nnc(SCC(=O)N(C)c2ccccc2)n1Cc1ccccc1", "inhibition": "1.26% (inactive)"}
{"smiles": "Cc1cc(C(=O)N2CCc3ccccc32)c2ccccc2n1", "inhibition": "2.81% (inactive)"}
{"smiles": "O=C(NN=C1CCN(Cc2ccccc2)CC1)c1ccccc1", "inhibition": "9.36% (inactive)"}
{"smiles": "COCCNC(=O)c1ccccc1NC(=O)c1cccc([N+](=O)[O-])c1C", "inhibition": "0.34% (inactive)"}
{"smiles": "COc1ccc(Cc2nnc(NC(=O)Cc3cccs3)s2)cc1", "inhibition": "1.69% (inactive)"}
{"smiles": "CN1CCN(C(c2ccc(F)cc2)c2nnnn2Cc2cccs2)CC1", "note": "(centres undefined)", "inhibition": "10.2% (inactive)"}
{"smiles": "Cc1ccc(C)n1-c1cccc(NC(=O)c2ccccc2)c1", "inhibition": "0.87% (inactive)"}
{"smiles": "O=S(=O)(c1ccccc1)N1CCN(CC(O)COc2ccc3c(c2)CCC3)CC1", "note": "(centres undefined)", "inhibition": "4.13% (inactive)"}
{"smiles": "O=C(/C=C/Nc1cccc(C(F)(F)F)c1)c1ccc(Oc2ncccn2)cc1", "inhibition": "18% (inactive)"}
{"smiles": "CC(C)(C)NC(=O)NC(=O)CSc1ncn[nH]1", "inhibition": "6.43% (inactive)"}
{"smiles": "Cc1ccc(O)c(NC(=S)NC(=O)c2ccc(-c3ccc(Cl)cc3)o2)c1", "inhibition": "20.3% (inactive)"}
{"smiles": "O=C(/C=C/c1ccc(F)cc1)NC(=S)Nc1ccccc1C(=O)NC1CCCCC1", "inhibition": "2.9% (inactive)"}
{"smiles": "CCc1ccc(N2CC(C(=O)Nc3cccnc3)CC2=O)cc1", "note": "(centres undefined)", "inhibition": "30.5% (inactive)"}
{"smiles": "CCCn1nnnc1SCC(=O)N1CCOCC1", "inhibition": "20.5% (inactive)"}
{"smiles": "Cc1cc2cc(NC(=O)c3ccco3)ccc2[nH]1", "inhibition": "-3.69% (inactive)"}
{"smiles": "COc1cc(C(=O)Nc2ccc3c(c2)C(=O)c2ccccc2C3=O)cc(OC)c1OC", "inhibition": "12.8% (inactive)"}
{"smiles": "O=C(CN1CCN(c2ccccc2F)CC1)c1c[nH]c2ccccc12", "inhibition": "-2.26% (inactive)"}
{"smiles": "CC(C)C(c1nnnn1Cc1ccccc1)N1CCC(C(N)=O)CC1", "note": "(centres undefined)", "inhibition": "9.62% (inactive)"}
{"smiles": "CC(C)Cn1cnc2c1c(=O)n(CC(=O)Nc1ccc3c(c1)OCO3)c(=O)n2Cc1ccccc1", "inhibition": "14.6% (inactive)"}
{"smiles": "O=C(Nc1ccccc1N1CCOCC1)c1ccc(Cl)nc1", "inhibition": "3.97% (inactive)"}
{"smiles": "C/C(=N\\NC(=O)c1cccc(C)c1)c1ccc(N2CCOCC2)cc1", "inhibition": "4.53% (inactive)"}
{"smiles": "CCOC(=O)N1CCN(C(=O)C2CCN(S(=O)(=O)c3cc(OC)ccc3OC)CC2)CC1", "inhibition": "1.55% (inactive)"}
{"smiles": "CCN(CC)S(=O)(=O)c1ccc2[nH]c(=O)cc(C(=O)Nc3cccc(C(C)=O)c3)c2c1", "inhibition": "8.83% (inactive)"}
{"smiles": "CC(C)(C)c1cc(OC(=O)c2ccncc2)ccc1O", "inhibition": "7.95% (inactive)"}
{"smiles": "O=C(c1cccs1)N(C(=O)c1cccs1)c1ccc(Br)cn1", "inhibition": "15.4% (inactive)"}
{"smiles": "O=C(O)/C=C/c1ccc2ccccc2n1", "inhibition": "-2.31% (inactive)"}
{"smiles": "CCN(C(=O)COC(=O)c1cc(C)n(-c2ccc(F)cc2)c1C)C1CCS(=O)(=O)C1", "note": "(centres undefined)", "inhibition": "2.1% (inactive)"}
{"smiles": "COc1ccc(Br)cc1CN(C)CC(=O)Nc1cc(Cl)ccc1Cl", "inhibition": "-1.79% (inactive)"}
{"smiles": "COc1ccccc1N1CCN(C(=O)c2ccc(Br)s2)CC1", "inhibition": "0.09% (inactive)"}
{"smiles": "CCOc1cc(-c2nn3cnnc3s2)cc(OCC)c1OCC", "inhibition": "4.31% (inactive)"}
{"smiles": "CCN(CC)S(=O)(=O)c1ccc(-c2nnc(SCC(=O)Nc3ccc(OC)cc3)o2)cc1", "inhibition": "23.9% (inactive)"}
{"smiles": "CC(=O)N[C@@H](Cc1c[nH]c2ccccc12)C(=O)OCC(=O)Nc1ccc(Cl)c(S(=O)(=O)N(C)C)c1", "inhibition": "7.98% (inactive)"}
{"smiles": "CCN1C(=O)/C(=C\\c2cn(-c3ccccc3)nc2-c2cccnc2)SC1=S", "inhibition": "28% (inactive)"}
{"smiles": "C#CCN1C(=O)C(O)(CC(=O)c2cccc(OC)c2)c2ccccc21", "note": "(centres undefined)", "inhibition": "16% (inactive)"}
{"smiles": "CC(=O)Nc1ccccc1Sc1ccc2c3c(cccc13)C(=O)N(c1ccc(C)cc1)C2=O", "inhibition": "-0.84% (inactive)"}
{"smiles": "Cc1cc(C)c(C#N)c(=N)o1", "inhibition": "-5.81% (inactive)"}
{"smiles": "CCN(CC)Cc1cc(C(C)=O)ccc1O", "inhibition": "3.73% (inactive)"}
{"smiles": "COc1ccc2c(c1)c1ncn(CCCN3CCOCC3)c(=O)c1n2C", "inhibition": "1.07% (inactive)"}
{"smiles": "COc1ccccc1-n1c(=O)[nH]c2c(C(N)=O)nc(C3CCCCC3)nc21", "inhibition": "13.4% (inactive)"}
{"smiles": "N=c1sccn1CC(=O)NCCc1ccc(Cl)cc1", "inhibition": "3.43% (inactive)"}
{"smiles": "Cc1nc2ccc(NC(=O)C3CCN(S(=O)(=O)c4cccs4)CC3)cc2s1", "inhibition": "18.1% (inactive)"}
{"smiles": "Cc1c(Cl)cccc1N1C(=O)CC(N(O)c2ccccc2)C1=O", "note": "(centres undefined)", "inhibition": "12.9% (inactive)"}
{"smiles": "CCCn1nnc(NC(=O)c2cccc(OCC(C)C)c2)n1", "inhibition": "27.2% (inactive)"}
{"smiles": "COc1ccc(-n2nnnc2SCc2nc(N)nc(N3CCOCC3)n2)cc1", "inhibition": "33.7% (inactive)"}
{"smiles": "CCC(C)c1ccccc1OCCCCN1CCCC1", "note": "(centres undefined)", "inhibition": "-2.07% (inactive)"}
{"smiles": "COc1ccc(NC(=O)c2cc(-c3ccc(OC)c(OC)c3)on2)cc1OC", "inhibition": "9.77% (inactive)"}
{"smiles": "Cc1ccc(-n2c(=O)c3c4c(sc3n(Cc3cc(=O)n5ccccc5n3)c2=O)CCC4)cc1C", "inhibition": "3.95% (inactive)"}
{"smiles": "COC(=O)c1c(NC(=O)C2COc3ccccc3O2)sc2c1CCN(Cc1ccccc1)C2", "note": "(centres undefined)", "inhibition": "25.5% (inactive)"}
{"smiles": "Cc1ccc2c(c1)C(c1ccc(F)cc1)N(C(=O)c1cc3ccccc3oc1=O)CC(=O)N2", "note": "(centres undefined)", "inhibition": "-3.89% (inactive)"}
{"smiles": "O=C(O)CSC1c2ccccc2C(=O)N1Cc1ccccc1", "note": "(centres undefined)", "inhibition": "2.25% (inactive)"}
{"smiles": "O=C(COc1ccc(-c2nnco2)cc1)NCc1ccccc1Cl", "inhibition": "10.1% (inactive)"}
{"smiles": "c1ccc(NC2=NCCCCS2)cc1", "inhibition": "15.9% (inactive)"}
{"smiles": "O=c1[nH][nH]cc1C=Nc1ccc(Cl)cc1", "inhibition": "46.9% (inactive)"}
{"smiles": "Cn1c(=O)c2c(nc(SCC(=O)NC34CC5CC(CC(C5)C3)C4)n2C)n(C)c1=O", "inhibition": "16.3% (inactive)"}
{"smiles": "COc1ccc(S(=O)(=O)Nc2ccc(C)cc2)cc1N(C)S(=O)(=O)c1ccc(Cl)cc1", "inhibition": "3.82% (inactive)"}
{"smiles": "COCCN(C(=O)CCC(=O)Nc1ccccn1)C(C(=O)NC1CCCC1)c1ccc(OC)cc1", "note": "(centres undefined)", "inhibition": "2.57% (inactive)"}
{"smiles": "Cc1cc(NC(=O)CCC(=O)N(CC(=O)NCC2CCCO2)c2ccccc2C)no1", "note": "(centres undefined)", "inhibition": "14.8% (inactive)"}
{"smiles": "COc1ccc(C(=O)CN2C(=O)NC3(CCCc4ccccc43)C2=O)cc1OC", "note": "(centres undefined)", "inhibition": "7.22% (inactive)"}
{"smiles": "Cc1ccn2cc(CCNS(=O)(=O)c3ccc(F)c(C(F)(F)F)c3)nc2c1", "inhibition": "0.82% (inactive)"}
{"smiles": "Cc1ccc(C2CC(=O)N(c3ccc(F)cc3)C3=C2C(=O)CCC3)cc1", "note": "(centres undefined)", "inhibition": "4.74% (inactive)"}
{"smiles": "N#Cc1cccc(-n2c(-c3ccccc3)nnc2-c2ccccc2)c1C#N", "inhibition": "4.7% (inactive)"}
{"smiles": "COc1ccc(-c2nc3cnccn3c2NC(C)(C)CC(C)(C)C)cc1O", "inhibition": "6.02% (inactive)"}
{"smiles": "CN(c1ccc(C(=O)NCC2CCCO2)cc1)S(C)(=O)=O", "note": "(centres undefined)", "inhibition": "6.07% (inactive)"}
{"smiles": "CC(C)CCNC(=O)c1nnc(Cc2ccc(Cl)cc2)o1", "inhibition": "4.7% (inactive)"}
{"smiles": "Cc1nnc(SCC(=O)N2CC(=O)Nc3ccccc32)n1C", "inhibition": "41% (inactive)"}
{"smiles": "CCN1C(=O)c2cccc3c(NC(=O)c4cccc(N5C(=O)CCC5=O)c4)ccc1c23", "inhibition": "0.82% (inactive)"}
{"smiles": "Cc1cc(-n2nc(C)cc2C)nc(NS(=O)(=O)c2ccccc2)n1", "inhibition": "14.8% (inactive)"}
{"smiles": "O=C(CCn1nnc2ccccc21)Nc1nnc(Cc2ccc(F)cc2)s1", "inhibition": "5.36% (inactive)"}
{"smiles": "COc1c(Cl)cc(Cl)cc1C(=O)Nc1ccc(NC(C)=O)cc1", "inhibition": "5.32% (inactive)"}
{"smiles": "CCOC(=O)Cc1nnc(NC(=O)CSc2ccc(Cl)cc2)s1", "inhibition": "2.82% (inactive)"}
{"smiles": "CCC(C(=O)N1CCc2cc(OC)c(OC)cc2C1)c1ccccc1", "note": "(centres undefined)", "inhibition": "-0.78% (inactive)"}
{"smiles": "Cc1nn(-c2ccccc2)c(Cl)c1CN(C(=O)CCl)c1cccc2ccccc12", "inhibition": "14.8% (inactive)"}
{"smiles": "COc1ccccc1C1/C(=C(/O)c2ccc(C)cc2)C(=O)C(=O)N1CCN1CCOCC1", "note": "(centres undefined)", "inhibition": "6.7% (inactive)"}
{"smiles": "Cc1ccc2oc(Nc3nc(-c4ccccc4)cc(=O)[nH]3)nc2c1", "inhibition": "10.7% (inactive)"}
{"smiles": "O=C(CCCN1CCOCC1)c1ccc2c(c1)OCCO2", "inhibition": "2.27% (inactive)"}
{"smiles": "CCOc1ccc(-n2nc(C(=O)N3CCN(CC)CC3)c3ccccc3c2=O)cc1", "inhibition": "18.4% (inactive)"}
{"smiles": "CCOC(=O)c1cnc2ccc(C)cc2c1Nc1ccc(N2CCOCC2)cc1", "inhibition": "5.86% (inactive)"}
{"smiles": "COc1ccc(C(=O)C(CO)Oc2ccccc2OC)cc1OC", "note": "(centres undefined)", "inhibition": "1.41% (inactive)"}
{"smiles": "CCOC(=O)C[n+]1c(C)sc2ccc(OC)cc21", "inhibition": "5.31% (inactive)"}
{"smiles": "CCSc1nnc(-c2cccs2)o1", "inhibition": "6.52% (inactive)"}
{"smiles": "O=C(c1cccc(F)c1)N1CCN(c2cc(N3CCCCC3)c(F)cc2[N+](=O)[O-])CC1", "inhibition": "4.49% (inactive)"}
{"smiles": "CCCCOc1ccc(-c2nnn(C(C)C(=O)OCC)n2)cc1", "note": "(centres undefined)", "inhibition": "27.1% (inactive)"}
{"smiles": "Cc1cccc(N2CCN(c3cccc(C)c3)C2c2cccnc2)c1", "inhibition": "5.98% (inactive)"}
{"smiles": "CCCOc1ccc(/C(O)=C2/C(=O)C(=O)N(CCCn3ccnc3)C2c2ccco2)cc1", "note": "(centres undefined)", "inhibition": "0.88% (inactive)"}
{"smiles": "O=C(c1ccc(Cl)cc1)N1CCCC(c2ccccc2)=N1", "inhibition": "10% (inactive)"}
{"smiles": "Fc1ccc(-c2n[nH]c(=S)n2/N=C/c2c[nH]c3ccccc23)cc1", "inhibition": "27.9% (inactive)"}
{"smiles": "Cc1nc2oc(C(=O)c3ccccc3)c(N)c2c2c1COC(C)(C)C2", "inhibition": "0.22% (inactive)"}
{"smiles": "CCOC(=O)C1=C(c2ccccc2)N(C)C(=O)NC1c1ccc(O)c(OC)c1", "note": "(centres undefined)", "inhibition": "8.42% (inactive)"}
{"smiles": "CCOC(=O)c1cccc(NC(=O)CSc2nnc(-c3ccoc3C)n2CCOC)c1", "inhibition": "-4.74% (inactive)"}
{"smiles": "CCCCOc1ccc(/C=C/C(=O)OCC(=O)NC(=O)NCC(C)C)cc1OCC", "inhibition": "15.1% (inactive)"}
{"smiles": "O=C(Nc1ccc(F)cc1)N1CCOCC1", "inhibition": "29.5% (inactive)"}
{"smiles": "COc1ccccc1CC1(C)NC(=O)N(CC(=O)N2CC(C)OC(C)C2)C1=O", "note": "(centres undefined)", "inhibition": "9.89% (inactive)"}
{"smiles": "O=C(CCl)N1N=C(c2ccco2)CC1c1cccs1", "note": "(centres undefined)", "inhibition": "26.9% (inactive)"}
{"smiles": "CNC(=S)N=Nc1c(O)[nH]c2ccc(C(C)C)cc12", "inhibition": "9.53% (inactive)"}
{"smiles": "CN1c2ccccc2C2(C)CCCC3=Cc4cccc([N+](=O)[O-])c4OC312", "note": "(centres undefined)", "inhibition": "2.99% (inactive)"}
